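In this assay, cells in 96-well plates receive the compound at five concentrations for 48 hours. Endpoints are linearly interpolated between the surrounding concentrations. At the GI50, growth is halved.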 Calls of active or inactive are those of the source. Cut-off read from the data, not from the text of the source: active = GI50 up to about 1.1 µM and inactive = higher.
Columns and labels:
Assay in all cases: inhibition of tumour cell growth, NCI panel, 48 h
[1] = tested on: A549
[2] = tested on: XF498
[3] = tested on: OVCAR-8
[4] = tested on: SN12C
[5] = tested on: M14
[6] = tested on: LXFL 529
[7] = tested on: SK-MEL-5
[8] = tested on: SNB-19
[9] = tested on: TK-10
[10] = tested on: CCRF-CEM
[11] = tested on: 786-0
[12] = tested on: UACC-257
[13] = tested on: KM-20L2
[14] = tested on: HT-29
[15] = tested on: OVCAR-5
[16] = tested on: HCC 2998
[17] = tested on: HOP-62
[18] = tested on: COLO 205
[19] = tested on: SF-539
[20] = tested on: RXF 631
[21] = tested on: K562
[22] = tested on: HOP-18
[23] = tested on: HOP-92
[24] = tested on: ACHN
[25] = tested on: UACC-62
[26] = tested on: U-251
[27] = tested on: DMS-114
[28] = tested on: SK-OV-3
[29] = tested on: RPMI-8226
[30] = tested on: SNB-78
[31] = tested on: NCI-H460
[32] = tested on: SK-MEL-28
[33] = tested on: M19-MEL
[34] = tested on: SW-620
[35] = tested on: NCI-H23
[36] = tested on: NCI-H226
[37] = tested on: OVCAR-3
[38] = tested on: HCT-15
[39] = tested on: Malme-3M
[40] = tested on: EKVX
[41] = tested on: SF-268
[42] = tested on: RXF 393
[43] = tested on: UO-31
[44] = tested on: CAKI-1
[45] = tested on: MOLT-4
[46] = tested on: DLD-1
[47] = tested on: SF-295
[48] = tested on: OVCAR-4
[49] = tested on: A498
[50] = tested on: IGROV-1
[51] = tested on: NCI-H522
[52] = tested on: HCT-116
[53] = tested on: DMS-273
[54] = tested on: HL-60
[55] = tested on: SNB-75
[56] = tested on: SK-MEL-2
[57] = tested on: KM12

Q: For `CC(C)N(C(=O)C12C3C4C1C1C4(C#N)C3C12C#N)C(C)C` (stereo unspecified), which GI50 [1] is on record?
A: > 100 µM (inactive)

Q: And the GI50 [2]?
A: > 100 µM (inactive)

Q: What about the GI50 [3] of the same compound?
A: > 100 µM (inactive)

Q: What about the GI50 [4] of the same compound?
A: > 100 µM (inactive)

Q: What about the GI50 [5] of the same compound?
A: > 100 µM (inactive)

Q: What about the GI50 [6] of the same compound?
A: > 100 µM (inactive)

Q: And the GI50 [7]?
A: > 100 µM (inactive)

Q: What about the GI50 [8] of the same compound?
A: > 100 µM (inactive)

Q: And the GI50 [9]?
A: > 100 µM (inactive)

Q: And the GI50 [10]?
A: > 100 µM (inactive)

Q: What about the GI50 [11] of the same compound?
A: > 100 µM (inactive)

Q: What about the GI50 [12] of the same compound?
A: > 100 µM (inactive)

Q: What about the GI50 [13] of the same compound?
A: > 100 µM (inactive)

Q: And the GI50 [14]?
A: > 100 µM (inactive)

Q: And the GI50 [15]?
A: > 100 µM (inactive)

Q: And the GI50 [16]?
A: > 100 µM (inactive)

Q: And the GI50 [17]?
A: > 100 µM (inactive)

Q: What about the GI50 [18] of the same compound?
A: > 100 µM (inactive)

Q: What about the GI50 [19] of the same compound?
A: > 100 µM (inactive)

Q: And the GI50 [20]?
A: > 100 µM (inactive)

Q: What about the GI50 [21] of the same compound?
A: > 100 µM (inactive)

Q: What about the GI50 [22] of the same compound?
A: > 100 µM (inactive)

Q: What about the GI50 [23] of the same compound?
A: > 100 µM (inactive)

Q: What about the GI50 [24] of the same compound?
A: > 100 µM (inactive)

Q: What about the GI50 [25] of the same compound?
A: > 100 µM (inactive)

Q: And the GI50 [26]?
A: > 100 µM (inactive)

Q: What about the GI50 [27] of the same compound?
A: > 100 µM (inactive)

Q: And the GI50 [28]?
A: > 100 µM (inactive)

Q: And the GI50 [29]?
A: > 100 µM (inactive)

Q: What about the GI50 [30] of the same compound?
A: > 100 µM (inactive)

Q: And the GI50 [31]?
A: > 100 µM (inactive)

Q: And the GI50 [32]?
A: > 100 µM (inactive)

Q: And the GI50 [33]?
A: > 100 µM (inactive)

Q: And the GI50 [34]?
A: > 100 µM (inactive)

Q: And the GI50 [35]?
A: > 100 µM (inactive)

Q: And the GI50 [36]?
A: > 100 µM (inactive)

Q: What about the GI50 [37] of the same compound?
A: > 100 µM (inactive)

Q: What about the GI50 [38] of the same compound?
A: > 100 µM

Q: What about the GI50 [39] of the same compound?
A: > 100 µM (inactive)

Q: What about the GI50 [40] of the same compound?
A: > 100 µM (inactive)

Q: What about the GI50 [41] of the same compound?
A: > 100 µM (inactive)

Q: What about the GI50 [42] of the same compound?
A: > 100 µM (inactive)

Q: What about the GI50 [43] of the same compound?
A: > 100 µM (inactive)

Q: And the GI50 [44]?
A: > 100 µM (inactive)

Q: What about the GI50 [45] of the same compound?
A: > 100 µM (inactive)

Q: And the GI50 [46]?
A: > 100 µM (inactive)

Q: What about the GI50 [47] of the same compound?
A: > 100 µM (inactive)

Q: And the GI50 [48]?
A: > 100 µM (inactive)

Q: And the GI50 [49]?
A: > 100 µM (inactive)

Q: What about the GI50 [50] of the same compound?
A: > 100 µM (inactive)

Q: `c1ccc2c(NCCCCCCNc3cccc4ccccc34)cccc2c1` was tested. Which GI50 [1] did it give?
A: 42 µM (inactive)

Q: What about the GI50 [2] of the same compound?
A: > 100 µM (inactive)

Q: And the GI50 [3]?
A: > 100 µM (inactive)

Q: What about the GI50 [4] of the same compound?
A: > 100 µM (inactive)

Q: What about the GI50 [51] of the same compound?
A: > 100 µM (inactive)

Q: And the GI50 [5]?
A: > 100 µM (inactive)

Q: And the GI50 [6]?
A: > 100 µM (inactive)

Q: And the GI50 [7]?
A: 60.3 µM (inactive)

Q: What about the GI50 [8] of the same compound?
A: > 100 µM (inactive)

Q: And the GI50 [9]?
A: > 100 µM (inactive)

Q: And the GI50 [10]?
A: 38.8 µM (inactive)

Q: And the GI50 [52]?
A: > 100 µM (inactive)

Q: What about the GI50 [11] of the same compound?
A: > 100 µM (inactive)

Q: What about the GI50 [12] of the same compound?
A: > 100 µM (inactive)

Q: And the GI50 [13]?
A: > 100 µM (inactive)

Q: What about the GI50 [53] of the same compound?
A: > 100 µM (inactive)

Q: What about the GI50 [14] of the same compound?
A: > 100 µM (inactive)

Q: And the GI50 [15]?
A: > 100 µM (inactive)

Q: What about the GI50 [16] of the same compound?
A: > 100 µM (inactive)

Q: And the GI50 [17]?
A: > 100 µM (inactive)

Q: What about the GI50 [18] of the same compound?
A: > 100 µM (inactive)

Q: And the GI50 [19]?
A: > 100 µM (inactive)

Q: And the GI50 [54]?
A: 51.5 µM (inactive)

Q: And the GI50 [55]?
A: 2.77 µM (inactive)

Q: And the GI50 [20]?
A: > 100 µM (inactive)

Q: What about the GI50 [21] of the same compound?
A: > 100 µM (inactive)

Q: And the GI50 [22]?
A: > 100 µM (inactive)

Q: And the GI50 [23]?
A: 50.7 µM (inactive)

Q: What about the GI50 [24] of the same compound?
A: > 100 µM (inactive)

Q: What about the GI50 [25] of the same compound?
A: 64.6 µM (inactive)

Q: What about the GI50 [26] of the same compound?
A: > 100 µM (inactive)

Q: What about the GI50 [27] of the same compound?
A: 49.1 µM (inactive)

Q: And the GI50 [28]?
A: > 100 µM (inactive)

Q: What about the GI50 [29] of the same compound?
A: 87.3 µM (inactive)

Q: And the GI50 [30]?
A: > 100 µM (inactive)

Q: And the GI50 [31]?
A: > 100 µM (inactive)

Q: What about the GI50 [32] of the same compound?
A: > 100 µM (inactive)

Q: What about the GI50 [33] of the same compound?
A: > 100 µM (inactive)

Q: And the GI50 [34]?
A: 74.5 µM (inactive)

Q: What about the GI50 [35] of the same compound?
A: 75.3 µM (inactive)

Q: And the GI50 [36]?
A: > 100 µM (inactive)

Q: And the GI50 [37]?
A: > 100 µM (inactive)

Q: And the GI50 [38]?
A: > 100 µM

Q: What about the GI50 [39] of the same compound?
A: > 100 µM (inactive)

Q: What about the GI50 [40] of the same compound?
A: > 100 µM (inactive)

Q: What about the GI50 [41] of the same compound?
A: > 100 µM (inactive)

Q: What about the GI50 [56] of the same compound?
A: > 100 µM (inactive)

Q: What about the GI50 [43] of the same compound?
A: 98.2 µM (inactive)

Q: What about the GI50 [57] of the same compound?
A: > 100 µM (inactive)

Q: What about the GI50 [44] of the same compound?
A: > 100 µM (inactive)

Q: What about the GI50 [45] of the same compound?
A: 44.3 µM (inactive)

Q: What about the GI50 [46] of the same compound?
A: > 100 µM (inactive)

Q: What about the GI50 [47] of the same compound?
A: > 100 µM (inactive)

Q: And the GI50 [48]?
A: 66.1 µM (inactive)

Q: What about the GI50 [49] of the same compound?
A: > 100 µM (inactive)

Q: What about the GI50 [50] of the same compound?
A: > 100 µM (inactive)
